Results reported in US6908909B2, “Liquid oral compositions comprising a calcium compound and an acidulant” (SmithKline Beecham plc, priority 1996, dated 2005).

Test: In-vitro study of phosphorus liberated from teeth exposed to citric acid solutions
Conditions: for Mean amount Phosphorus liberated (μg) ± 1 SD: 0.3% citric acid
Procedure: To investigate the importance of calcium supplementation on exposure of enamel to citric acid solutions, five experiments were undertaken, each using eight teeth. The teeth were first subjected to prophylaxis, washed with saline and then covered in an acid resistant wax with the exception of a 5 mm diameter experimental window.
In each experiment the teeth were subjected to six consecutive 5 min exposures with 0.3% citric acid solutions at a flow rate of 0.1 ml/min. The citric acid solutions were supplemented with either 0.0, 0.5, 1.5, 2.5, 5.0, 7.5 10 or 15 mM calcium in the form of calcium hydroxide and the pH was adjusted to 3.5 or 3.8 using 1.0 M sodium hydroxide. Samples of residual citric acid were collected after every 5 min exposure of the teeth and these were frozen at −4° C., prior to phosphorus analysis by the method of Chen et al (1956) Analytical Chemistry, Vol.28, p1956-8.

| Structure (SMILES) | Mean amount Phosphorus liberated (μg) ± 1 SD (calcium 0 mM (mol ratio calcium:acid 0.00), pH 3.5) | Mean amount Phosphorus liberated (μg) ± 1 SD (calcium 0 mM (mol ratio calcium:acid 0.00), pH 3.8) | Mean amount Phosphorus liberated (μg) ± 1 SD (calcium 0.5 mM (mol ratio calcium:acid 0.03), pH 3.5) | Mean amount Phosphorus liberated (μg) ± 1 SD (calcium 0.5 mM (mol ratio calcium:acid 0.03), pH 3.8) | Mean amount Phosphorus liberated (μg) ± 1 SD (calcium 1.5 mM (mol ratio calcium:acid 0.10), pH 3.5) | Mean amount Phosphorus liberated (μg) ± 1 SD (calcium 1.5 mM (mol ratio calcium:acid 0.10), pH 3.8) | Mean amount Phosphorus liberated (μg) ± 1 SD (calcium 2.5 mM (mol ratio calcium:acid 0.17), pH 3.5) | Mean amount Phosphorus liberated (μg) ± 1 SD (calcium 2.5 mM (mol ratio calcium:acid 0.17), pH 3.8) | Mean amount Phosphorus liberated (μg) ± 1 SD (calcium 5 mM (mol ratio calcium:acid 0.35), pH 3.5) | Mean amount Phosphorus liberated (μg) ± 1 SD (calcium 5 mM (mol ratio calcium:acid 0.35), pH 3.8) | Mean amount Phosphorus liberated (μg) ± 1 SD (calcium 7.5 mM (mol ratio calcium:acid 0.52), pH 3.5) | Mean amount Phosphorus liberated (μg) ± 1 SD (calcium 7.5 mM (mol ratio calcium:acid 0.52), pH 3.8) | Mean amount Phosphorus liberated (μg) ± 1 SD (calcium 10 mM (mol ratio calcium:acid 0.70), pH 3.5) | Mean amount Phosphorus liberated (μg) ± 1 SD (calcium 10 mM (mol ratio calcium:acid 0.70), pH 3.8) | Mean amount Phosphorus liberated (μg) ± 1 SD (calcium 15 mM (mol ratio calcium:acid 1.05), pH 3.5) | Mean amount Phosphorus liberated (μg) ± 1 SD (calcium 15 mM (mol ratio calcium:acid 1.05), pH 3.8) | effect on erosive potential of a 0.3% citric acid solution (in words) (addition of calcium to 0.3% citric acid solution, effect greatest up to calcium to acid molar ratio of about 0.5) |
| --- | --- | --- | --- | --- | --- | --- | --- | --- | --- | --- | --- | --- | --- | --- | --- | --- | --- |
| O=C(O)CC(O)(CC(=O)O)C(=O)O [citric acid, reference compound] | 1.41 ± 0.11 µg | 1.26 ± 0.17 µg | – | – | – | – | – | – | – | – | – | – | – | – | – | – | – |
| [Ca+2].[OH-].[OH-] [calcium, calcium hydroxide] | – | – | 1.25 ± 0.14 µg | 1.02 ± 0.09 µg | 1.07 ± 0.15 µg | 0.83 ± 0.12 µg | 1.22 ± 0.14 µg | 0.63 ± 0.13 µg | 0.79 ± 0.06 µg | 0.46 ± 0.13 µg | 0.72 ± 0.1 µg | 0.32 ± 0.10 µg | 0.46 ± 0.13 µg | 0.24 ± 0.11 µg | 0.3 ± 0.10 µg | 0.14 ± 0.07 µg | reduces its erosive potential |
